Source: ChEMBL document CHEMBL1777779, “Discovery of novel quaternary ammonium derivatives of (3R)-quinuclidinyl carbamates as potent and long acting muscarinic antagonists” (Bioorg Med Chem Lett, 2011)

Columns and labels:
[1] = biological target: T1, Muscarinic acetylcholine receptor M1 (Homo sapiens, UniProt P11229); assay: Displacement of [3H]NMS from human muscarinic M1 receptor expressed in CHO-K1 cells after 1 hr by scintillation counting; assay type: cell-based
T1 sequence (P11229 whole entry): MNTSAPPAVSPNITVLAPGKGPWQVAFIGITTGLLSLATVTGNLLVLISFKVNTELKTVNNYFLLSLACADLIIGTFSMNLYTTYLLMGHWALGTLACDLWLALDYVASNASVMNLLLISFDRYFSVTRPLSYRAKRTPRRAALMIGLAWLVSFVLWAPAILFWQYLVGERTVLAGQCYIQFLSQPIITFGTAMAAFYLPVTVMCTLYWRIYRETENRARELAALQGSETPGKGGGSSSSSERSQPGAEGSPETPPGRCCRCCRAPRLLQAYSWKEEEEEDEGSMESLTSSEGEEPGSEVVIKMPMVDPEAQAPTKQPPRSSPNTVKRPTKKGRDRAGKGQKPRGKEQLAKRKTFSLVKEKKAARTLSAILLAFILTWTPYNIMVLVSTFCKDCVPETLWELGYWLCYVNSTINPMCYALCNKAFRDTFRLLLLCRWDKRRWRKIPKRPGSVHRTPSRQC

[2] = biological target: Muscarinic acetylcholine receptor M1 and M3 (Homo sapiens) (UniProt P20309+P11229); assay: Selectivity ratio of IC50 for human muscarinic M1 receptor to IC50 for human muscarinic M3 receptor
Chain of Muscarinic acetylcholine receptor M1 and M3 (Homo sapiens) (P20309 whole entry, looked up, one chain of several): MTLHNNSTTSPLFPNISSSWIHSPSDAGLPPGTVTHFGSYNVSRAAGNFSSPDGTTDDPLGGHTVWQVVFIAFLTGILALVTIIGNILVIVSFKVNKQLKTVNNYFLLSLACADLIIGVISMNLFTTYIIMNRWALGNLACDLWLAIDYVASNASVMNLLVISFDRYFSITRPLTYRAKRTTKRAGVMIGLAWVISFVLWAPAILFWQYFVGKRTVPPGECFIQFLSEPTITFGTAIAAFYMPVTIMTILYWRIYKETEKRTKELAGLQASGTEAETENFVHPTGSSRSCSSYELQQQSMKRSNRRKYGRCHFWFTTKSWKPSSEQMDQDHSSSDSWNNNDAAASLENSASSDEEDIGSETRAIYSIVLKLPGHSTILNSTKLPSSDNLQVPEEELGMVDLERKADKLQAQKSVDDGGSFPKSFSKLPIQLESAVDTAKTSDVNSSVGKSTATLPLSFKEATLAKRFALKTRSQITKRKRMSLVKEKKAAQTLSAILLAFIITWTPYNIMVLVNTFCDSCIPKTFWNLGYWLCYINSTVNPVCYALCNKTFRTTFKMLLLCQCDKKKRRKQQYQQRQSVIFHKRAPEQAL

[3] = biological target: Muscarinic acetylcholine receptor M3 (Homo sapiens, UniProt P20309); assay: Displacement of [3H]NMS from human muscarinic M3 receptor expressed in CHO-K1 cells after 1 hr by scintillation counting; assay type: cell-based
Chain of Muscarinic acetylcholine receptor M3 (P20309 whole entry): as the sequence (P20309 whole entry, looked up, one chain of several) above

[4] = biological target: T2, Muscarinic acetylcholine receptor M2 (Homo sapiens, UniProt P08172); assay: Displacement of [3H]NMS from human muscarinic M2 receptor expressed in CHO-K1 cells after 1 hr by scintillation counting; assay type: cell-based
T2 sequence (P08172 whole entry): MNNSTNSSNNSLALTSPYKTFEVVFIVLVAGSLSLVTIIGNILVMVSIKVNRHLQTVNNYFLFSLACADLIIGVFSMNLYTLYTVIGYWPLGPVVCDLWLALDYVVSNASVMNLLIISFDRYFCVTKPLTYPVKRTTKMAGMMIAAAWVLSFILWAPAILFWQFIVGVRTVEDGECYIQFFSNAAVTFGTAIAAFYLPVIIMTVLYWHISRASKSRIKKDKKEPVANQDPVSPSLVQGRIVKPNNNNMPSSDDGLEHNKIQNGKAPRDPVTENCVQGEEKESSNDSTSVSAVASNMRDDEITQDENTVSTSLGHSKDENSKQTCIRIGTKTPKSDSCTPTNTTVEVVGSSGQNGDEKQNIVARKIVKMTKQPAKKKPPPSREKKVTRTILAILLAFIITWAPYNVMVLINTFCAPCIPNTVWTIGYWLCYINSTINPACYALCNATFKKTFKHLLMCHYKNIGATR

[5] = biological target: Muscarinic acetylcholine receptors; M2 & M3 (Homo sapiens) (UniProt P20309+P08172); assay: Selectivity ratio of IC50 for human muscarinic M2 receptor to IC50 for human muscarinic M3 receptor
Chain of Muscarinic acetylcholine receptors; M2 & M3 (Homo sapiens) (P20309 whole entry, looked up, one chain of several): as the sequence (P20309 whole entry, looked up, one chain of several) above

Cavia porcellus = assay: Inhibition of acetylcholine-induced bronchospasm in anesthetized Dunkin-Hartley guinea pig assessed as time required to recover 50% of maximum inhibitory effect at 1 mg/ml administered via nebulizer; assay type: functional

| Structure (SMILES) | IC50 [1] [nM] | Ratio IC50 [2] | IC50 [3] [nM] | IC50 [4] [nM] | Ratio IC50 [5] | Time (Cavia porcellus) [h] |
| --- | --- | --- | --- | --- | --- | --- |
| O=C(O[C@H]1CN2CCC1CC2)N1CCc2ccccc2[C@@H]1c1ccccc1 [SOLIFENACIN SUCCINATE] | 63.5 | 0.5 | 131 | 574 | 4.4 |  |
| O=C(O[C@H]1CN2CCC1CC2)N(CCc1ccccc1)c1ccccc1 | 1 | 0.3 | 3.6 | 42.1 | 11.7 |  |
| CC(C)N(C(=O)O[C@H]1CN2CCC1CC2)c1ccccc1 | 428 | 0.6 | 659 | 1360 | 2.1 |  |
| O=C(O[C@H]1C[N+]2(CCOc3ccccc3)CCC1CC2)N(Cc1cc(F)c(F)c(F)c1)c1cccc(F)c1.[Br-] | 1.1 | 1.8 | 0.6 | 14.4 | 24 | >6 |
| Cc1ccc(N(Cc2ccccc2)C(=O)O[C@H]2CN3CCC2CC3)cc1 | 39.7 | 0.5 | 74.7 | 196 | 2.6 |  |
| O=C(O[C@H]1C[N+]2(CCCc3cccs3)CCC1CC2)N(Cc1ccsc1)c1ccccc1.[Br-] | 2 | 3.3 | 0.6 | 8.4 | 14 | >6 |
| O=C(O[C@H]1C[N+]2(CCCc3ccccc3)CCC1CC2)N(Cc1ccccc1)c1ccccc1.[Br-] | 1.5 | 5 | 0.3 | 4 | 13.3 | >6 |
| O=C(Nc1ccccc1-c1ccccc1)OC12CCN(CC1)CC2 | 3 | 0.5 | 6 | 14.5 | 2.4 |  |
| CCCCN(C(=O)O[C@H]1C[N+]2(CCOc3ccccc3)CCC1CC2)c1ccccc1.[Br-] | 1.4 | 1.7 | 0.8 | 8.9 | 11.1 | >6 |
| O=C(O[C@H]1C[N+]2(CCOc3ccccc3)CCC1CC2)N(Cc1cccs1)c1ccccc1.[Br-] | 0.4 | 1.3 | 0.3 | 1.1 | 3.7 | >6 |
| C[N+]12CCC(CC1)[C@@H](OC(=O)N(Cc1cccs1)c1ccccc1)C2 | 9.2 | 0.5 | 18.6 | 33.1 | 1.8 |  |
| Cc1cccc(N(Cc2cc(F)c(F)cc2F)C(=O)O[C@H]2C[N+]3(CCCc4ccccc4)CCC2CC3)c1.[Br-] | 3 | 3.3 | 0.9 | 29.8 | 33.1 | <6 |
| O=C(O[C@H]1CN2CCC1CC2)N(Cc1cc(F)c(F)c(F)c1)c1cccc(F)c1 [TARAFENACIN] | 0.9 | 0.6 | 1.5 | 97.3 | 64.9 |  |
| O=C(O[C@H]1CN2CCC1CC2)N(Cc1ccccc1)Cc1cccs1 | 8.8 | 0.4 | 22.5 | 88.9 | 3.95 |  |
| O=C(O[C@H]1CN2CCC1CC2)N(Cc1ccccc1)c1ccc(F)cc1 | 8.3 | 0.5 | 15 | 116 | 7.7 |  |
| Cc1cccc(N(Cc2cc(F)c(F)cc2F)C(=O)O[C@H]2CN3CCC2CC3)c1 | 1 | 0.7 | 1.4 | 45.8 | 32.7 |  |
| CCCCN(C(=O)O[C@H]1CN2CCC1CC2)c1ccccc1 | 1.1 | 0.2 | 4.3 | 22.9 | 5.3 | <1 |
